Reference: patent US20240287080A1 (IDEAYA Biosciences Inc., priority 2021, published 2024)

These compounds were tested against T1, Pol theta (1-899) (Homo sapiens, UniProt O75417) (assay: Pol theta ATPase activity, NADH oxidation-coupled enzymatic assay (ATPase NADH coupling: Standard Screening: hPolQ)). Conditions: Pol theta (1-899) 5 nM, NADH oxidation-coupled ATPase assay; compounds of Table 3.
T1 construct: Pol theta (1-899) (5 nM) in assay buffer
Type: biochemical
Method in brief: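 Rates of ATP hydrolysis taken from 60-min A340 traces of NADH oxidation via PK/LDH coupling, then fit four-parameter for IC50, Hill slope and max inhibition. Enzyme (5 nM, 1-899) and compounds preincubated 15 min before ATP 100 μM and 50-thymine ssDNA 300 nM (stock, equal volume added).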

T1 sequence (O75417 1-899): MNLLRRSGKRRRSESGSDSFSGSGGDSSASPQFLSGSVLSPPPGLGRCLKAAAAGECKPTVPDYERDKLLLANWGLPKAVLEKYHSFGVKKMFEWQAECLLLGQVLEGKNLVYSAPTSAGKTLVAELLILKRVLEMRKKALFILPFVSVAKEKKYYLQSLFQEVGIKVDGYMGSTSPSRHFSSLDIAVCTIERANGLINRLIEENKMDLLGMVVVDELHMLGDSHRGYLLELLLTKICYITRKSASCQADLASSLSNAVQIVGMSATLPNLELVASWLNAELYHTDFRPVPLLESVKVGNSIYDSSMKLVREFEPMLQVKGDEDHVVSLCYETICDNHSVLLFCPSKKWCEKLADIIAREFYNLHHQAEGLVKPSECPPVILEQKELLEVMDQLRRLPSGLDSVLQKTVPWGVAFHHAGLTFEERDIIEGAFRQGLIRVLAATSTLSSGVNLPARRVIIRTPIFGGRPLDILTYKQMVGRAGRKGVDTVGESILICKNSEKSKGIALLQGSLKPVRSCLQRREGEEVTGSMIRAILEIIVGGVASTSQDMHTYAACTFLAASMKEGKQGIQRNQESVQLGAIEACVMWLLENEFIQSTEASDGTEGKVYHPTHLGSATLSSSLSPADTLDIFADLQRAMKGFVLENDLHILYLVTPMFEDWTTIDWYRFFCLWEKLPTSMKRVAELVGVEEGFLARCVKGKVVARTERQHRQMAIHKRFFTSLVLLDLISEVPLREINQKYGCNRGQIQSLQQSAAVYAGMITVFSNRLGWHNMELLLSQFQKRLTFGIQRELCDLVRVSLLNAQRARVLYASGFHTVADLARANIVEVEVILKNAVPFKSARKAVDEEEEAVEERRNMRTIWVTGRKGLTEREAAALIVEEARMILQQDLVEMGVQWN

| Structure (SMILES) | IC50 |
| --- | --- |
| COc1cnc(C)cc1-c1cc(C)ncc1C(=O)Nc1nnc(O)s1 [Example 325, N-(5-hydroxy-1,3,4-thiadiazol-2-yl)-5′-methoxy-2′,6-dimethyl-[4,4′-bipyridine]-3-carboxamide] | 1000 to 10000 nM |
| COc1nnc(NC(=O)c2cnc(C)cc2-c2cc(C)cc(F)c2)s1 [Example 405, 4-(3-fluoro-5-methylphenyl)-N-(5-methoxy-1,3,4-thiadiazol-2-yl)-6-methylpyridine-3-carboxamide] | 200 to 500 nM |
| COc1nnc(NC(=O)c2cnc(C)cc2-c2ccc3c(c2)OCO3)s1 [Example 409, 4-(2H-1,3-benzodioxol-5-yl)-N-(5-methoxy-1,3,4-thiadiazol-2-yl)-6-methylpyridine-3-carboxamide] | 500 to 1000 nM |
| COc1nnc(NC(=O)c2cnc(C)cc2-c2cccc(S(=O)(=O)N(C)C)c2)s1 [Example 396, 4-[3-(dimethylsulfamoyl)phenyl]-N-(5-methoxy-1,3,4-thiadiazol-2-yl)-6-methylpyridine-3-carboxamide] | 1000 to 10000 nM |
| COc1nnc(NC(=O)c2cnc(C)cc2-c2cccc(S(C)(=O)=O)c2)s1 [Example 397, 4-(3-methanesulfonylphenyl)-N-(5-methoxy-1,3,4-thiadiazol-2-yl)-6-methylpyridine-3-carboxamide] | 500 to 1000 nM |
| COc1nnc(NC(=O)c2cnc(C)cc2-c2cccc(OC)c2C#N)s1 [Example 411, 4-(2-cyano-3-methoxyphenyl)-N-(5-methoxy-1,3,4-thiadiazol-2-yl)-6-methylpyridine-3-carboxamide] | 1000 to 10000 nM |
| COc1cnc(Cl)cc1-c1cc(C)ncc1C(=O)Nc1nnc(O[C@H]2C[C@H]3C[C@@H]2C[C@@H]3O)s1 (single isomer, unassigned) [Example 269] | ≤ 200 nM |
| COc1nnc(NC(=O)c2cnc(C)cc2-c2ccc(NS(C)(=O)=O)cc2)s1 [Example 387, 4-(4-methanesulfonamidophenyl)-N-(5-methoxy-1,3,4-thiadiazol-2-yl)-6-methylpyridine-3-carboxamide] | 1000 to 10000 nM |
| Cc1cc(-c2cc(Cl)ncc2OC(F)F)c(C(=O)Nc2nnc(O[C@@H]3CCC[C@@H](O)C3)s2)cn1 (single isomer, unassigned) [Example 251] | ≤ 200 nM |
| COc1cnc(Cl)cc1-c1cc(C)ncc1C(=O)Nc1nnc(O[C@@H]2C[C@H](F)CN(C(C)C)C2)s1 (single isomer, unassigned) [Example 283] | 200 to 500 nM |
| COc1nnc(NC(=O)c2cnc(C)cc2-c2cc(Br)c([S@@+](C)[O-])cc2OC)s1 (single isomer, unassigned) [Example 319] | ≤ 200 nM |
| COc1nnc(NC(=O)c2cnc(C)cc2-c2ccc(F)c(F)c2)s1 [Example 354, 4-(3,4-difluorophenyl)-N-(5-methoxy-1,3,4-thiadiazol-2-yl)-6-methylpyridine-3-carboxamide] | 1000 to 10000 nM |
| COc1cnc(Cl)cc1-c1cc(C)ncc1C(=O)Nc1nnc(OC2([C@@H]3CCOC3)CC2)s1 (single isomer, unassigned) [Example 299] | ≤ 200 nM |
| COc1cnc(Cl)cc1-c1cc(C)ncc1C(=O)Nc1nnc(O[C@@H]2CCCN([C@@H]3CCOC3)C2)s1 [Example 264, 2′-chloro-5′-methoxy-6-methyl-N-(5-(((R)-1-((R)-tetrahydrofuran-3-yl)piperidin-3-yl)oxy)-1,3,4-thiadiazol-2-yl)-[4,4′-bipyridine]-3-carboxamide] | ≤ 200 nM |
| COCCOc1cccc(-c2cc(C)ncc2C(=O)Nc2nnc(OC)s2)c1 [Example 429, N-(5-methoxy-1,3,4-thiadiazol-2-yl)-4-[3-(2-methoxyethoxy)phenyl]-6-methylpyridine-3-carboxamide] | 1000 to 10000 nM |
| COc1nnc(NC(=O)c2cnc(C)cc2-c2cccc(N(C)C)c2)s1 [Example 412, 4-[3-(dimethylamino)phenyl]-N-(5-methoxy-1,3,4-thiadiazol-2-yl)-6-methylpyridine-3-carboxamide] | 1000 to 10000 nM |
| COc1cnc(C)cc1-c1cc(C)ncc1C(=O)Nc1nnc(OC2COCC2NCC2CC2)s1 (centres unmarked) [Example 249, N-(5-((4-((cyclopropylmethyl)amino)tetrahydrofuran-3-yl)oxy)-1,3,4-thiadiazol-2-yl)-5′-methoxy-2′,6-dimethyl-[4,4′-bipyridine]-3-carboxamide] | ≤ 200 nM |
| COc1cnc(Cl)c(F)c1-c1cc(C)ncc1C(=O)Nc1nnc(O[C@H]2CC[C@H](CO)CC2)s1 [Example 316, 2′-chloro-3′-fluoro-N-(5-(((1r,4r)-4-(hydroxymethyl)cyclohexyl)oxy)-1,3,4-thiadiazol-2-yl)-5′-methoxy-6-methyl-[4,4′-bipyridine]-3-carboxamide] | ≤ 200 nM |
| COc1nnc(NC(=O)c2cnc(C)cc2-c2ccccc2C#N)s1 [Example 454, 4-(2-cyanophenyl)-N-(5-methoxy-1,3,4-thiadiazol-2-yl)-6-methylpyridine-3-carboxamide] | 1000 to 10000 nM |
| COc1nnc(NC(=O)c2cc(-c3cc(Cl)ncc3OC)ncc2C)s1 [Example 285, 2′-chloro-5′-methoxy-N-(5-methoxy-1,3,4-thiadiazol-2-yl)-5-methyl-[2,4′-bipyridine]-4-carboxamide] | 1000 to 10000 nM |
| COc1nnc(NC(=O)c2cnc(C)cc2-c2cncc(F)c2)s1 [Example 471, 5-fluoro-N-(5-methoxy-1,3,4-thiadiazol-2-yl)-6′-methyl-[3,4′-bipyridine]-3′-carboxamide] | 1000 to 10000 nM |
| COc1nnc(NC(=O)c2cnc(C)cc2-c2cccc(N3CCCCC3)c2)s1 [Example 478, N-(5-methoxy-1,3,4-thiadiazol-2-yl)-6-methyl-4-[3-(piperidin-1-yl)phenyl]pyridine-3-carboxamide] | 1000 to 10000 nM |

Same assay, conditions: Table 4; Pol theta (1-899) 5 nM, ATP, dT50 ssDNA

| Structure (SMILES) | IC50 |
| --- | --- |
| COc1cccc(F)c1-c1cc(C)ncc1C(=O)Nc1nnc(O)s1 [Example 3, 4-(2-fluoro-6-methoxyphenyl)-N-(5-hydroxy-1,3,4-thiadiazol-2-yl)-6-methylnicotinamide] | 1000 to 10000 nM |
| CCOc1ccc(Cl)cc1-c1cc(C)ncc1C(=O)Nc1nnc(OC)s1 [Example 53, 4-(5-chloro-2-ethoxyphenyl)-N-(5-methoxy-1,3,4-thiadiazol-2-yl)-6-methylnicotinamide] | 200 to 500 nM |
| CCOc1cnc(Cl)cc1-c1cc(C)ncc1C(=O)Nc1nnc(OC)s1 [Example 42, 2′-chloro-5′-ethoxy-N-(5-methoxy-1,3,4-thiadiazol-2-yl)-6-methyl-(4,4′-bipyridine)-3-carboxamide] | 200 to 500 nM |
| COc1nnc(NC(=O)c2cnc(C)cc2-c2c(Cl)cccc2Cl)s1 [Example 34, 4-(2,6-dichlorophenyl)-N-(5-methoxy-1,3,4-thiadiazol-2-yl)-6-methylnicotinamide] | 500 to 1000 nM |
| COc1cnc(Cl)cc1-c1cc(C)ncc1C(=O)Nc1nnc(OCC(C)(F)F)s1 [Example 20, 6′-chloro-N-(5-(2,2-difluoropropoxy)-1,3,4-thiadiazol-2-yl)-3′-methoxy-6-methyl-4,4′-bipyridine-3-carboxamide] | ≤ 200 nM |
| COc1nnc(NC(=O)c2cnc(C)cc2-c2cc(Br)ncc2OC)s1 [Example 63, 2′-bromo-5′-methoxy-N-(5-methoxy-1,3,4-thiadiazol-2-yl)-6-methyl-(4,4′-bipyridine)-3-carboxamide] | ≤ 200 nM |
| COc1nnc(NC(=O)c2cnc(C)cc2-c2cc(C(F)(F)F)ncc2OC)s1 [Example 57, 5′-methoxy-N-(5-methoxy-1,3,4-thiadiazol-2-yl)-6-methyl-2′-(trifluoromethyl)-(4,4′-bipyridine)-3-carboxamide] | ≤ 200 nM |
| COc1cnc(Cl)cc1-c1cc(C)ncc1C(=O)Nc1nnc(OCC(C)C)s1 [Example 21, 2′-chloro-N-(5-isobutoxy-1,3,4-thiadiazol-2-yl)-5′-methoxy-6-methyl-(4,4′-bipyridine)-3-carboxamide] | ≤ 200 nM |
| COc1nnc(NC(=O)c2cnc(C)cc2-c2cc(Cl)ncc2OC)s1 [Example 5, 2′-chloro-5′-methoxy-N-(5-methoxy-1,3,4-thiadiazol-2-yl)-6-methyl-(4,4′-bipyridine)-3-carboxamide] | ≤ 200 nM |
| CCOc1nnc(NC(=O)c2cnc(C)cc2-c2cc(Cl)ncc2OC)s1 [Example 28, 2′-chloro-N-(5-ethoxy-1,3,4-thiadiazol-2-yl)-5′-methoxy-6-methyl-(4,4′-bipyridine)-3-carboxamide] | ≤ 200 nM |

Same assay, conditions: Table 5; Pol theta (1-899) 5 nM, ATP, dT50 ssDNA

| Structure (SMILES) | IC50 |
| --- | --- |
| COc1nnc(NC(=O)c2cnc(COC3CC3)cc2-c2cc(Cl)ncc2OC)s1 [Example 215, 2′-chloro-6-(cyclopropoxymethyl)-5′-methoxy-N-(5-methoxy-1,3,4-thiadiazol-2-yl)-(4,4′-bipyridine)-3-carboxamide] | ≤ 200 nM |
| COc1cnc(Cl)c(F)c1-c1cc(C)ncc1C(=O)Nc1nnc(O[C@@H]2CCOC2)s1 [Example 80, 2′-chloro-3′-fluoro-5′-methoxy-6-methyl-N-(5-(((R)-tetrahydrofuran-3-yl)oxy)-1,3,4-thiadiazol-2-yl)-(4,4′-bipyridine)-3-carboxamide] | ≤ 200 nM |
| COc1cnc(C)c(F)c1-c1cc(C)ncc1C(=O)Nc1nnc(O[C@H]2C[C@@H]3CC[C@H]2O3)s1 (single isomer, unassigned) [Example 219] | ≤ 200 nM |
| COc1cnc(Cl)cc1-c1cc(C)ncc1C(=O)Nc1nnc(O[C@H]2CC[C@H]([C@@H](C)O)CC2)s1 (single isomer, unassigned) [Example 199] | ≤ 200 nM |
| COc1cnc(Cl)cc1-c1cc(C)ncc1C(=O)Nc1nnc(O[C@H]2CCO[C@@H]2C)s1 (single isomer, unassigned) [Example 115] | ≤ 200 nM |
| COc1cnc(Cl)cc1-c1cc(C)ncc1C(=O)Nc1nnc(O[C@H]2C[C@H](O)C2(C)C)s1 (single isomer, unassigned) [Example 184, 2′-chloro-N-(5-((1r,3r)-3-hydroxy-2,2-dimethylcyclobutoxy)-1,3,4-thiadiazol-2-yl)-5′-methoxy-6-methyl-(4,4′-bipyridine)-3-carboxamide] | ≤ 200 nM |
